Assay results: the supplement of paper PMC10307832

Legend:
Assay in all cases: relative viability (nuclei count vs DMSO), 5 days (fraction); higher = more cells survive
LXF-289 = system: LXF-289
Outline: (§1)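 Lung cancer cell lines were pin-tool dosed in 1536-well plates on the day after seeding, with either a lone drug or a fixed anchor-drug dose plus five library-drug doses (not always all listed) in √10 steps. Nuclei were counted on 4× images after 5 days. Relative viability is the ratio of treated-well to vehicle-well nuclei counts, with each value a median of duplicate plates.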

NCI-H1650 = system: NCI-H1650
Outline: as §1

NCI-H1651 = system: NCI-H1651
Outline: as §1

NCI-H1793 = system: NCI-H1793
Outline: as §1

NCI-H1915 = system: NCI-H1915
Outline: as §1

NCI-H2087 = system: NCI-H2087
Outline: as §1

NCI-H2126 = system: NCI-H2126
Outline: as §1

NCI-H2347 = system: NCI-H2347
Outline: as §1

NCI-H358 = system: NCI-H358
Outline: as §1

NCI-H460 = system: NCI-H460
Outline: as §1

NCI-H596 = system: NCI-H596
Outline: as §1

SW 1573 = system: SW 1573
Outline: as §1

With `O=c1[nH]c2ccccc2n1C1CCN(CCCC(c2ccc(F)cc2)c2ccc(F)cc2)CC1` [Pimozide] + Cc1cc(Nc2cc(N3CCN(C)CC3)nc(Sc3ccc(NC(=O)C4CC4)cc3)n2)n[nH]1 [Tozasertib] (partner 0.1 µM) as the compound, how does the relative viability (LXF-289; first compound 0.8 µM) read?
The relative viability was 0.173.

And the relative viability (LXF-289; first compound 2.53 µM)?
The relative viability was 0.14.

And the relative viability (LXF-289; first compound 8 µM)?
The relative viability was 0.126.

And the relative viability (NCI-H1650; first compound 0.08 µM)?
Its relative viability is 0.347.

And the relative viability (NCI-H1650; first compound 0.253 µM)?
The relative viability was 0.398.

What about the relative viability (NCI-H1650; first compound 0.8 µM) of the same compound?
Its relative viability is 0.475.

What about the relative viability (NCI-H1650; first compound 2.53 µM) of the same compound?
Its relative viability is 0.331.

And the relative viability (NCI-H1650; first compound 8 µM)?
Its relative viability is 0.307.

What about the relative viability (NCI-H1651; first compound 0.08 µM) of the same compound?
Its relative viability is 0.618.

And the relative viability (NCI-H1651; first compound 0.253 µM)?
The relative viability was 0.697.

And the relative viability (NCI-H1651; first compound 0.8 µM)?
The relative viability was 0.655.

And the relative viability (NCI-H1651; first compound 2.53 µM)?
Its relative viability is 0.611.

And the relative viability (NCI-H1651; first compound 8 µM)?
Its relative viability is 0.567.

And the relative viability (NCI-H1793; first compound 0.253 µM)?
The relative viability was 0.341.

And the relative viability (NCI-H1793; first compound 0.8 µM)?
The relative viability was 0.439.

What about the relative viability (NCI-H1793; first compound 2.53 µM) of the same compound?
The relative viability was 0.244.

What about the relative viability (NCI-H1793; first compound 8 µM) of the same compound?
The relative viability was 0.278.

And the relative viability (NCI-H1915; first compound 0.08 µM)?
Its relative viability is 0.445.

And the relative viability (NCI-H1915; first compound 0.253 µM)?
The relative viability was 0.383.

What about the relative viability (NCI-H1915; first compound 0.8 µM) of the same compound?
Its relative viability is 0.332.

And the relative viability (NCI-H1915; first compound 2.53 µM)?
Its relative viability is 0.321.

And the relative viability (NCI-H1915; first compound 8 µM)?
Its relative viability is 0.368.

And the relative viability (NCI-H2087; first compound 0.08 µM)?
The relative viability was 0.262.

What about the relative viability (NCI-H2087; first compound 0.253 µM) of the same compound?
Its relative viability is 0.232.

And the relative viability (NCI-H2087; first compound 2.53 µM)?
The relative viability was 0.233.

What about the relative viability (NCI-H2087; first compound 8 µM) of the same compound?
Its relative viability is 0.195.

And the relative viability (NCI-H2126; first compound 0.08 µM)?
The relative viability was 0.861.

What about the relative viability (NCI-H2126; first compound 0.253 µM) of the same compound?
The relative viability was 0.787.

What about the relative viability (NCI-H2126; first compound 0.8 µM) of the same compound?
The relative viability was 0.756.

And the relative viability (NCI-H2126; first compound 2.53 µM)?
The relative viability was 0.817.

What about the relative viability (NCI-H2126; first compound 8 µM) of the same compound?
The relative viability was 0.772.

What about the relative viability (NCI-H2347; first compound 0.253 µM) of the same compound?
The relative viability was 0.582.

What about the relative viability (NCI-H2347; first compound 0.8 µM) of the same compound?
Its relative viability is 0.531.

And the relative viability (NCI-H2347; first compound 2.53 µM)?
The relative viability was 0.563.

What about the relative viability (NCI-H2347; first compound 8 µM) of the same compound?
The relative viability was 0.578.

And the relative viability (NCI-H358; first compound 0.08 µM)?
The relative viability was 0.0997.

And the relative viability (NCI-H358; first compound 0.253 µM)?
The relative viability was 0.11.

And the relative viability (NCI-H358; first compound 0.8 µM)?
The relative viability was 0.112.

And the relative viability (NCI-H358; first compound 2.53 µM)?
Its relative viability is 0.108.

What about the relative viability (NCI-H358; first compound 8 µM) of the same compound?
The relative viability was 0.106.

And the relative viability (NCI-H460; first compound 0.08 µM)?
Its relative viability is 0.407.

What about the relative viability (NCI-H460; first compound 0.253 µM) of the same compound?
The relative viability was 0.314.

And the relative viability (NCI-H460; first compound 0.8 µM)?
The relative viability was 0.446.

What about the relative viability (NCI-H460; first compound 2.53 µM) of the same compound?
The relative viability was 0.0946.

What about the relative viability (NCI-H460; first compound 8 µM) of the same compound?
The relative viability was 0.436.

What about the relative viability (NCI-H596; first compound 0.08 µM) of the same compound?
The relative viability was 0.929.

And the relative viability (NCI-H596; first compound 0.253 µM)?
Its relative viability is 0.959.

What about the relative viability (NCI-H596; first compound 0.8 µM) of the same compound?
The relative viability was 0.893.

And the relative viability (NCI-H596; first compound 2.53 µM)?
The relative viability was 0.839.

What about the relative viability (NCI-H596; first compound 8 µM) of the same compound?
The relative viability was 0.882.

And the relative viability (SW 1573; first compound 0.08 µM)?
Its relative viability is 0.132.

And the relative viability (SW 1573; first compound 0.253 µM)?
The relative viability was 0.273.

What about the relative viability (SW 1573; first compound 0.8 µM) of the same compound?
The relative viability was 0.133.

What about the relative viability (SW 1573; first compound 2.53 µM) of the same compound?
The relative viability was 0.194.

What about the relative viability (SW 1573; first compound 8 µM) of the same compound?
The relative viability was 0.174.
